In one assay the test system is NCI-H292. The experiment in a line: Antiproliferative activity against human NCI-H292 cells. In kind it is functional, cell-based.
Assay [1] deals with DNA (cytosine-5)-methyltransferase 1 (Homo sapiens) (UniProt P26358). Nature of the assay: Inhibition of DNMT1 in human NCI-H292 cells at 50 uM after 48 hrs by Western blot analysis relative to control. The class given is cell-based.
The target is the same in assay [2]. The experiment in a line: Inhibition of DNMT1 in human NCI-H292 cells at 100 uM after 48 hrs by Western blot analysis relative to control. The class given is cell-based.

The values that follow come from ChEMBL document CHEMBL3763036, “Structural optimization of non-nucleoside DNA methyltransferase inhibitor as anti-cancer agent” (Bioorg Med Chem Lett, 2016).

Some results are limits rather than exact numbers.

DNA (cytosine-5)-methyltransferase 1 (Homo sapiens), sequence (P26358 whole entry): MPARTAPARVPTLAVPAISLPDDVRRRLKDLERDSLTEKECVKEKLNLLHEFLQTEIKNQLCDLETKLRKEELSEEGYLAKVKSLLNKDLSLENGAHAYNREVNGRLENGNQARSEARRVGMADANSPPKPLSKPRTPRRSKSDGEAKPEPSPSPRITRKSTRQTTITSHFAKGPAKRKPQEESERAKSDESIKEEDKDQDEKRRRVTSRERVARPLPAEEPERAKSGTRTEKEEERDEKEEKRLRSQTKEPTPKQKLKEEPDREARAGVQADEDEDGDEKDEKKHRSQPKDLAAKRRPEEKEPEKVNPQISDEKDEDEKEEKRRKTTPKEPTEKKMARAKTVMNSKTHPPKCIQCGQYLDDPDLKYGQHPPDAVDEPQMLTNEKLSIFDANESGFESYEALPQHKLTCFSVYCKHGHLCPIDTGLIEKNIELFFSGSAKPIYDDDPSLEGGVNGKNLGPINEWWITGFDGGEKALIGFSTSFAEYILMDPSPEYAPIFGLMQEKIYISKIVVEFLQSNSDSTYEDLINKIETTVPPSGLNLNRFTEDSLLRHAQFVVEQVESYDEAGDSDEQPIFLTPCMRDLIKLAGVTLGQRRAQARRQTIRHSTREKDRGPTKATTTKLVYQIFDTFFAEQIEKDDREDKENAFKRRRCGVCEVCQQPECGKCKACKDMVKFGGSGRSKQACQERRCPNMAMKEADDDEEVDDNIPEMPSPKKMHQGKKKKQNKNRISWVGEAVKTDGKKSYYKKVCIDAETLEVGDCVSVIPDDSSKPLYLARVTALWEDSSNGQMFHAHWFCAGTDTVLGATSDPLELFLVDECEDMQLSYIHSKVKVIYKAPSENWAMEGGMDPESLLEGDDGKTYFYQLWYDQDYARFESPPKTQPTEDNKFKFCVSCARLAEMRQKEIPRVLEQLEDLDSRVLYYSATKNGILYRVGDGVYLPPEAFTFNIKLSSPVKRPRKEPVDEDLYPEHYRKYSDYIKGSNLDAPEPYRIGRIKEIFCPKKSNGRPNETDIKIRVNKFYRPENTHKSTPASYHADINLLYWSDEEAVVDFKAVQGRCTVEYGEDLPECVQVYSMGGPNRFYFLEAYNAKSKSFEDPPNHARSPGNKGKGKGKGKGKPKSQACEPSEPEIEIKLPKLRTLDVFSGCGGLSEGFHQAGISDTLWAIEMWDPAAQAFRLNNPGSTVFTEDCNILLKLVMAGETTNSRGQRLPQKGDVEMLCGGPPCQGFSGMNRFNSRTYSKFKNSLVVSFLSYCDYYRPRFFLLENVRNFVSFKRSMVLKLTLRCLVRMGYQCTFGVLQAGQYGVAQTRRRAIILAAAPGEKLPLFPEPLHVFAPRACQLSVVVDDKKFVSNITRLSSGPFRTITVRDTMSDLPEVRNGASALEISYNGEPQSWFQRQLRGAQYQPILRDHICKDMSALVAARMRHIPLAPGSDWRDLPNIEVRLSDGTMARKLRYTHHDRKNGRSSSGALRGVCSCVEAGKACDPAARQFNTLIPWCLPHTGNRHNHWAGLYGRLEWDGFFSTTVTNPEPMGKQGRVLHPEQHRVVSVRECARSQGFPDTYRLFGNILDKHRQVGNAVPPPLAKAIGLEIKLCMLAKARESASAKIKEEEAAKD

Turning to `O=C(NCC1CCCCC1)c1cccc(N2C(=O)N/C(=C\c3ccc(O)cc3)C2=O)c1`, it took 17.9 µM to reach half-maximal inhibition in the assay on NCI-H292 (IC50). Further, in assay [1], the fold change (FC) turned out to be 0.25.

`O=C1/C(=C/c2ccc(O)cc2)NC(=S)N1c1ccc(Cl)cc1` yielded an IC50 in the assay on NCI-H292 of 28.5 µM. As for `O=C1N/C(=C\c2ccc(Cl)cc2)C(=O)N1c1ccc(Cl)cc1`, in the assay with NCI-H292, the IC50 was determined as 35.6 µM. Moreover, the fold change (FC) in assay [1] came to 0.99. For `O=C1N/C(=C\c2ccc(O)cc2)C(=O)N1c1ccc(Br)cc1`, in the assay with NCI-H292, half-maximal inhibition (IC50) was put at 69.9 µM.

As to `O=C(c1cccc(N2C(=O)N/C(=C\c3ccc(O)cc3)C2=O)c1)N1CCCC1`, the IC50 with NCI-H292 was over 200 µM. `O=C(O)c1cccc(N2C(=O)N/C(=C\c3ccc(O)cc3)C2=O)c1` displayed an IC50 in the assay with NCI-H292 of over 200 µM. The same measure, in the same setting: as for `COc1cc(/C=C2\NC(=O)N(c3ccc(Cl)cc3)C2=O)cc(OC)c1OC`, the figure is over 200 µM; as for `O=C(c1ccc(N2C(=O)N/C(=C\c3ccc(O)cc3)C2=O)cc1)N1CCCC1`, over 200 µM. Compound `CCOC(=O)c1ccc(N2C(=O)N/C(=C\c3ccc(O)cc3)C2=O)cc1` showed an IC50 in the assay with NCI-H292 of over 200 µM. The same measure, in the same setting: under `O=C1N/C(=C\c2ccc(O)cc2)C(=O)N1c1cccc(Br)c1` stands over 200 µM; under `O=C(Nc1ccc(Cl)cc1)c1cccc(N2C(=O)N/C(=C\c3ccc(O)cc3)C2=O)c1`, 125 µM. Take `O=C(NCc1ccccc1)c1cccc(N2C(=O)N/C(=C\c3ccc(O)cc3)C2=O)c1`: in the assay with NCI-H292, the IC50 worked out at 23.5 µM. The fold change (FC) in assay [1] was 0.27. Compound `O=C1/C(=C/c2ccc(O)cc2)NC(=S)N1c1ccc(I)cc1` had a 50% inhibitory concentration (IC50) in the assay with NCI-H292 of 19.7 µM. This lies in the double-digit micromolar range. On to `COc1ccc(N2C(=O)N/C(=C\c3ccc(O)cc3)C2=O)cc1`, for which the IC50 in the assay on NCI-H292 is over 200 µM. On to `O=C(NCC1CCCCC1)c1ccc(N2C(=O)N/C(=C\c3ccc(O)cc3)C2=O)cc1`, for which, in the assay with NCI-H292, the IC50 is over 200 µM. The same measure, in the same setting: as for `O=C1N/C(=C\c2ccc(Br)cc2)C(=O)N1c1ccc(Cl)cc1`, the figure is 46.6 µM. As for `COc1ccc(/C=C2\NC(=O)N(c3ccc(Cl)cc3)C2=O)cc1`, the IC50 with NCI-H292 came out at 32.1 µM. Also, in assay [1], the fold change (FC) is 1.19.

Turning to `O=C1N/C(=C\c2ccc(O)cc2)C(=O)N1c1cccc(I)c1`, the IC50 in the assay with NCI-H292 was over 200 µM.

For `Cc1cccc(N2C(=O)N/C(=C\c3ccc(O)cc3)C2=O)c1`, the IC50 in the assay on NCI-H292 was over 200 µM. With `O=C1N/C(=C\c2ccc(O)cc2)C(=O)N1c1ccc(Cl)cc1`, the IC50 in the assay on NCI-H292 was determined as 41.3 µM. Also, the fold change (FC) in assay [2] turned out to be 1.08. For the compound `O=C(Nc1ccc(Cl)cc1)c1ccc(N2C(=O)N/C(=C\c3ccc(O)cc3)C2=O)cc1`, the IC50 in the assay on NCI-H292 is over 200 µM. Compound `COc1cccc(N2C(=O)N/C(=C\c3ccc(O)cc3)C2=O)c1` showed an IC50 with NCI-H292 of over 200 µM.

Compound `O=C1N/C(=C\c2ccc3ccccc3c2)C(=O)N1c1ccc(Cl)cc1` registered a 50% inhibitory concentration (IC50) with NCI-H292 of over 200 µM. `O=C1N/C(=C\c2ccc(O)cc2)C(=O)N1c1ccc(I)cc1`: in the assay with NCI-H292, it took 25.5 µM to reach half-maximal inhibition (IC50). In addition, in assay [1], the fold change (FC) worked out at 0.01. In the assay with NCI-H292, `Cc1ccc(N2C(=O)N/C(=C\c3ccc(O)cc3)C2=O)cc1` registered an IC50 of 27.9 µM. The fold change (FC) in assay [1] came out at 0.32.

Turning to `O=C(NCc1ccccc1)c1ccc(N2C(=O)N/C(=C\c3ccc(O)cc3)C2=O)cc1`, the IC50 in the assay with NCI-H292 is over 200 µM. Still for that read-out and setting: under `O=C(O)c1ccc(N2C(=O)N/C(=C\c3ccc(O)cc3)C2=O)cc1` stands over 200 µM.
